Results published in EP4273147A1, “SUBSTITUTED SPIROLACTAMS, SALTS THEREOF AND THEIR USE AS HERBICIDALLY ACTIVE SUBSTANCES” (Bayer Aktiengesellschaft, priority 2022, dated 2023).

How the values were obtained:
[1] = test system: LOLRI; assay: Herbicidal pre-emergence action (Table A3); assay type: in vivo, Lolium rigidum; settings: visual grading after ca. 3 weeks
How it was run: (§1)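 Sown in sandy loam in pots and covered with soil: weed seeds, two species per pot, one of each plant class (mono- and dicotyledonous).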

[2] = test system: MATIN; assay: Herbicidal pre-emergence action (Table A4); assay type: in vivo, Matricaria inodora; settings: visual grading after ca. 3 weeks
How it was run: as §1

[3] = test system: SETVI; assay: Herbicidal pre-emergence action (Table A5); assay type: in vivo, Setaria viridis; settings: application rate 320 g/ha; visual grading after ca. 3 weeks
How it was run: as §1

[4] = test system: STEME; assay: Herbicidal pre-emergence action (Table A6); assay type: in vivo, Stellaria media; settings: visual grading after ca. 3 weeks
How it was run: as §1

[5] = test system: POAAN; assay: Herbicidal pre-emergence action (Table A7); assay type: in vivo, Poa annua; settings: application rate 320 g/ha; visual grading after ca. 3 weeks
How it was run: as §1

[6] = test system: POAAN; assay: Herbicidal post-emergence action (Table B7); assay type: in vivo, Poa annua; settings: application rate 1280 g/ha
How it was run: (§2)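 Greenhouse post-emergence screen on potted weeds in sandy loam, treatment at one-leaf stage, visual % control scored ~3 weeks later against untreated plants.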

[7] = test system: ALOMY; assay: Herbicidal pre-emergence action, section C (Table C2); assay type: in vivo, Alopecurus myosuroides; settings: application rate 320 g/ha; visual grading after ca. 3 weeks
[8] = test system: ECHCG; assay: Herbicidal pre-emergence action, section C (Table C6); assay type: in vivo, Echinochloa crus-galli; settings: visual grading after ca. 3 weeks
[9] = test system: SETVI; assay: Herbicidal pre-emergence action, section C (Table C10); assay type: in vivo, Setaria viridis; settings: application rate 320 g/ha; visual grading after ca. 3 weeks
[10] = test system: VERPE; assay: Herbicidal pre-emergence action, section C (Table C11); assay type: in vivo, Veronica persica; settings: visual grading after ca. 3 weeks
[11] = test system: VIOTR; assay: Herbicidal pre-emergence action, section C (Table C12); assay type: in vivo, Viola tricolor; settings: application rate 320 g/ha; visual grading after ca. 3 weeks
[12] = test system: ZEAMX; assay: Pre-emergence effects on crop plants (Table D1); assay type: in vivo, Zea mays; settings: crop plant, visual grading after ca. 3 weeks
Description: Seeds of mono- and dicotyledonous weed plants and crop plants were sown, in plastic or organic planting pots, in sandy loam and covered with soil. The compounds according to the invention, formulated in the form of wettable powders (WP) or as emulsifiable concentrates (EC), were applied to the surface of the covering soil as aqueous suspension or emulsion, with the addition of 0.5% of an additive, at an application rate of 600 1 of water/ha (converted).
Following treatment, the pots were placed in a greenhouse and kept under optimum growth conditions for the test plants.

[13] = test system: TRZAS; assay: Pre-emergence effects on crop plants (Table D2); assay type: in vivo, Triticum aestivum; settings: crop plant; application rate 320 g/ha; visual grading after ca. 3 weeks
[14] = test system: GLXMA; assay: Pre-emergence effects on crop plants (Table D4); assay type: in vivo, Glycine max; settings: crop plant; application rate 80 g/ha; visual grading after ca. 3 weeks
[15] = test system: BRSNW; assay: Pre-emergence effects on crop plants (Table D5); assay type: in vivo, Brassica napus; settings: crop plant; application rate 80 g/ha; visual grading after ca. 3 weeks
[16] = test system: ECHCG; assay: Herbicidal post-emergence action, section E (Table E5); assay type: in vivo, Echinochloa crus-galli; settings: application rate 320 g/ha; assessed visually after ca. 3 weeks
Description: (§3) 2 to 3 weeks after sowing, the test plants were sprayed in the single-leaf stage.

[17] = test system: VERPE; assay: Herbicidal post-emergence action, section E (Table E9); assay type: in vivo, Veronica persica; settings: application rate 320 g/ha; assessed visually after ca. 3 weeks
Description: as §3

[18] = test system: ZEAMX; assay: Post-emergence effects on crop plants (Table F1); assay type: in vivo, Zea mays; settings: application rate 320 g/ha, crop plant ZEAMX
Description: as §3

[19] = test system: TRZAS; assay: Post-emergence effects on crop plants (Table F2); assay type: in vivo, Triticum aestivum; settings: application rate 320 g/ha, crop plant TRZAS
Description: as §3

[20] = test system: ORYZA; assay: Post-emergence effects on crop plants (Table F3); assay type: in vivo, Oryza sativa; settings: application rate 320 g/ha, crop plant ORYZA
Description: as §3

[21] = test system: BRSNW; assay: Post-emergence effects on crop plants (Table F5); assay type: in vivo, Brassica napus; settings: application rate 80 g/ha, crop plant BRSNW
Description: as §3

[22] = test system: ORYZA; assay: Pre-emergence effects on crop plants (Table D3); settings: crop plant; application rate 80 g/ha; visual grading after ca. 3 weeks
[23] = test system: ABUTH; assay: Herbicidal pre-emergence action (Table A1); assay type: in vivo, Abutilon theophrasti; settings: application rate 1280 g/ha; visual grading after ca. 3 weeks vs untreated controls (100% = plants have died off, 0% = as control plants)
Description: (§4) Seeds of mono- and dicotyledonous weed plants were sown in plastic pots (double sowings with one species of mono- and one species of dicotyledonous weed plants per pot), in sandy loam, and covered with soil.

[24] = test system: ECHCG; assay: Herbicidal pre-emergence action (Table A2); assay type: in vivo, Echinochloa crus-galli; settings: application rate 320 g/ha; visual grading after ca. 3 weeks
How it was run: as §1

[25] = test system: ALOMY; assay: Herbicidal pre-emergence action (Table A9); assay type: in vivo, Alopecurus myosuroides; settings: application rate 1280 g/ha; visual grading after ca. 3 weeks
How it was run: as §1

[26] = test system: VERPE; assay: Herbicidal pre-emergence action (Table A11); assay type: in vivo, Veronica persica; settings: application rate 1280 g/ha; visual grading after ca. 3 weeks
How it was run: as §1

[27] = test system: ABUTH; assay: Herbicidal post-emergence action (Table B1); assay type: in vivo, Abutilon theophrasti; settings: application rate 1280 g/ha; treated at one-leaf stage; rated visually after about 3 weeks vs untreated controls (100% = plants have died, 0% = like control plants)
Experimental: (§5) Seeds of mono- and dicotyledonous weed plants were placed in plastic pots in sandy loam soil (doubly sown with in each case one species of mono- or dicotyledonous weed plants per pot), covered with soil and cultivated in a greenhouse under controlled growth conditions. 2 to 3 weeks after sowing, the test plants were treated at the one-leaf stage. […] After the test plants had been kept in the greenhouse under optimum growth conditions for about 3 weeks, the activity of the preparations was rated visually in comparison to untreated controls. For example, 100% activity = the plants have died, 0% activity = like control plants.

[28] = test system: ECHCG; assay: Herbicidal post-emergence action (Table B3); assay type: in vivo, Echinochloa crus-galli; settings: rated visually after about 3 weeks
How it was run: as §2

[29] = test system: MATIN; assay: Herbicidal post-emergence action (Table B6); assay type: in vivo, Matricaria inodora; settings: application rate 1280 g/ha; rated visually after about 3 weeks
Experimental: as §5

[30] = test system: VERPE; assay: Herbicidal post-emergence action (Table B10); assay type: in vivo, Veronica persica; settings: application rate 1280 g/ha
Experimental: as §5

[31] = test system: AMARE; assay: Herbicidal pre-emergence action (Table A8); assay type: in vivo, Amaranthus retroflexus; settings: application rate 1280 g/ha; visual grading after ca. 3 weeks vs untreated controls (100% = plants have died off, 0% = as control plants)
Description: as §4

[32] = test system: KCHSC; assay: Herbicidal pre-emergence action (Table A10); assay type: in vivo, Kochia scoparia; settings: application rate 1280 g/ha; visual grading after ca. 3 weeks
How it was run: as §1

[33] = test system: DIGSA; assay: Herbicidal pre-emergence action (Table A12); assay type: in vivo, Digitaria sanguinalis; settings: application rate 320 g/ha; visual grading after ca. 3 weeks
How it was run: as §1

[34] = test system: ABUTH; assay: Herbicidal pre-emergence action, section C (Table C1); assay type: in vivo, Abutilon theophrasti; settings: application rate 320 g/ha; visual grading after ca. 3 weeks
Description: Seeds of mono- and dicotyledonous weed plants and crop plants were sown, in plastic or organic planting pots, in sandy loam and covered with soil. The compounds according to the invention, formulated in the form of wettable powders (WP) or as emulsifiable concentrates (EC), were applied to the surface of the covering soil as aqueous suspension or emulsion, with the addition of 0.5% of an additive, at an application rate of 600 1 of water/ha (converted). Following treatment, the pots were placed in a greenhouse and kept under optimum growth conditions for the test plants.

[35] = test system: DIGSA; assay: Herbicidal pre-emergence action, section C (Table C5); assay type: in vivo, Digitaria sanguinalis; settings: application rate 320 g/ha; visual grading after ca. 3 weeks
[36] = test system: LOLRI; assay: Herbicidal pre-emergence action, section C (Table C7); assay type: in vivo, Lolium rigidum; settings: application rate 320 g/ha; visual grading after ca. 3 weeks

| pre-emergence activity against ORYZA [22] [%] | Compound | pre-emergence activity against LOLRI ([1]; application rate 1280 g/ha) [%] | pre-emergence activity against MATIN ([2]; application rate 1280 g/ha) [%] | pre-emergence activity against SETVI [3] [%] | pre-emergence activity against STEME ([4]; application rate 320 g/ha) [%] | pre-emergence activity against POAAN [5] [%] | post-emergence activity against POAAN [6] [%] | pre-emergence activity against ALOMY [7] [%] | pre-emergence activity against SETVI [9] [%] | pre-emergence activity against VIOTR [11] [%] | post-emergence activity against ZEAMX [18] [%] | post-emergence activity against TRZAS [19] [%] | post-emergence activity against ORYZA [20] [%] | pre-emergence activity against ABUTH [23] [%] | pre-emergence activity against ECHCG [24] [%] | pre-emergence activity against VERPE [26] [%] | post-emergence activity against ABUTH [27] [%] | other results |
| --- | --- | --- | --- | --- | --- | --- | --- | --- | --- | --- | --- | --- | --- | --- | --- | --- | --- | --- |
| 10 | O=C1N(Cc2ccc(Cl)s2)CCCC12CCCN(Cc1ccc(Cl)s1)C2=O (racemic) [I-022] | 90 | 90 | 100 | 100 | 100 | 90 | 90 | 100 | 80 | 0 | 10 | 10 |  |  |  |  | pre-emergence activity against ECHCG ([8]; application rate 320 g/ha): 100%; pre-emergence activity against VERPE ([10]; application rate 80 g/ha): 100%; pre-emergence activity against ZEAMX ([12]; application rate 320 g/ha): 0%; pre-emergence activity against TRZAS [13]: 10%; pre-emergence activity against GLXMA [14]: 20%; pre-emergence activity against BRSNW [15]: 0%; post-emergence activity against ECHCG [16]: 90%; post-emergence activity against VERPE [17]: 80%; post-emergence activity against BRSNW [21]: 20% |
|  | O=C1N(Cc2ccccc2F)CCCC12CCCN(Cc1c(F)cccc1F)C2=O (racemic) [I-031] |  |  | 100 | 90 | 100 | 90 |  |  |  |  |  |  | 90 | 100 | 90 | 90 | pre-emergence activity against LOLRI ([1]; application rate 320 g/ha): 100%; pre-emergence activity against MATIN ([2]; application rate 320 g/ha): 90%; pre-emergence activity against ALOMY [25]: 90%; post-emergence activity against ECHCG ([28]; application rate 320 g/ha): 90%; post-emergence activity against MATIN [29]: 90%; post-emergence activity against VERPE [30]: 90% |
| 20 | O=C1N(Cc2ccccc2)CCCC12CCN(Cc1cccc(F)c1F)C2=O (racemic) [I-039] | 100 | 90 | 100 |  | 100 |  | 100 | 100 | 90 | 20 | 0 | 0 | 90 | 100 | 90 | 90 | pre-emergence activity against STEME ([4]; application rate 1280 g/ha): 90%; pre-emergence activity against AMARE [31]: 90%; pre-emergence activity against KCHSC [32]: 90%; pre-emergence activity against DIGSA [33]: 100%; post-emergence activity against ECHCG ([28]; application rate 1280 g/ha): 90%; pre-emergence activity against ABUTH [34]: 90%; pre-emergence activity against DIGSA [35]: 100%; pre-emergence activity against ECHCG ([8]; application rate 80 g/ha): 100%; pre-emergence activity against LOLRI [36]: 90%; pre-emergence activity against VERPE ([10]; application rate 320 g/ha): 80%; pre-emergence activity against ZEAMX ([12]; application rate 80 g/ha): 0% |
